Values after ≈ are worked out from the molar mass of the structure shown. Structures can show the parent of a compound that is named as a salt. Where two headings read alike, the source gives them in different places.

What is called IC50 is the point on the concentration scale where inhibition reaches its midpoint.

Common to all, as to format: cell-based
Assay [1] relates to Adult Bovine Aortic Endothelial (ABAE) cell line. Kind of assay: Antiproliferative activity in Adult Bovine Aortic Endothelial (ABAE) cell line, PROTOCOL 2 (48 h, sulforhodamine B). The settings on record: Bos taurus, ABAE cells. As to the method: The antiproliferative activity of the compounds of Formula I in an Adult Bovine Aortic Endothelial (ABAE) cell line and in Human Tumor cells lines is evaluated in three similar assays that measure growth inhibition. The assays are identified as follows: PROTOCOLS 1, 2, and 3 are described in greater detail hereinbelow. In general, according to PROTOCOLS 1 and 2, the target ABAE and/or Human Tumor cells are exposed to the compounds of Formula I for 48 hours. PROTOCOL 3 exposes ABAE cells to the compounds for 4 days. A detailed description of the Protocols is as follows: All cell lines are maintained in log phase in RPMI 1640 media, supplemented with 5% fetal calf serum, penicillin/streptomycin and 2 mM L-glutamine. Cultures are renewed after 20 passages with cells from a fresh stock of batch-frozen early passage cells. Cell lines are routinely checked for mycoplasma contamination (Genprobe). In a laminar flow hood, cells (1-5×10^4) are plated into 96-well microtiter plates in a volume of 0.1 ml/well with a bulk microtiter dispenser (Denley). […] At this concentration, dimethylsulfoxide has no effect on cell growth. Compounds are added using a Tomtec dispenser which simultaneously dispenses from one 96-well plate, containing the drug dilutions, to the plates containing the cells. […] The number of cells on the plate are quantitated using a protein dye-binding assay (Monks et al., 1991). […] The optical densities are read from an automatic spectrophotometric plate reader (Dynatech) directly to a main frame computer (VAX 8600). PROTOCOL 2 Antiproliferative Activity in Human Tumor and Adult Bovine Aortic Endothelial Cell Lines (ABAE) The antiproliferative activity of the compounds of Formula I is evaluated in a panel comprised of human tumor cell lines as listed in Protocol 1 as well as an adult bovine aortic endothelial cell line (ABAE). […] Table 1 presents the results depicting the antiproliferative activity of the compounds of Formula I against an ABAE cell line, as evaluated by PROTOCOL 2 and PROTOCOL 3. […]

Another assay has as its system CACO2. Nature of the assay: Antiproliferative activity in human tumor cell lines, PROTOCOL 1 and PROTOCOL 2. As to the method: (§1) The antiproliferative activity of the compounds of Formula I in an Adult Bovine Aortic Endothelial (ABAE) cell line and in Human Tumor cells lines is evaluated in three similar assays that measure growth inhibition. The assays are identified as follows:
(§2) PROTOCOLS 1, 2, and 3 are described in greater detail hereinbelow. In general, according to PROTOCOLS 1 and 2, the target ABAE and/or Human Tumor cells are exposed to the compounds of Formula I for 48 hours. PROTOCOL 3 exposes ABAE cells to the compounds for 4 days. A detailed description of the Protocols is as follows:
(§3) Antiproliferative Activity in Human Tumor Cell Lines
(§4) The antiproliferative activity of the compounds of Formula I of the present invention is evaluated in a panel comprised of human tumor cell lines. The human tumor cell lines are from
(§5) 2) Colon tumors: MIP, CACO2, and SW620.
(§6) All cell lines are maintained in log phase in RPMI 1640 media, supplemented with 5% fetal calf serum, penicillin/streptomycin and 2 mM L-glutamine. Cultures are renewed after 20 passages with cells from a fresh stock of batch-frozen early passage cells. Cell lines are routinely checked for mycoplasma contamination (Genprobe). In a laminar flow hood, cells (1-5×10^4) are plated into 96-well microtiter plates in a volume of 0.1 ml/well with a bulk microtiter dispenser (Denley). […] At this concentration, dimethylsulfoxide has no effect on cell growth. Compounds are added using a Tomtec dispenser which simultaneously dispenses from one 96-well plate, containing the drug dilutions, to the plates containing the cells. After two days of continuous drug exposure, 50% cold trichloroacetic acid (TCA) is added to 10% final concentration to fix the cells, and after 60 minutes at 4° C., the TCA is aspirated and the plates are washed 5 times with deionized water using a microtiter plate washer. The number of cells on the plate are quantitated using a protein dye-binding assay (Monks et al., 1991). A 0.4% solution of the dye, sulforhodamine B, in […] is added to the plates, and the plates are washed 5 times with 1% glacial acetic acid using the automatic plate washed. The bound stain is solubilized with 0.1 ml of 10 mMTris base. The optical densities are read from an automatic spectrophotometric plate reader (Dynatech) directly to a main frame computer (VAX 8600).
(§7) Positive controls, that include standard chemotherapeutic drugs (i.e., adriamycin, cisplatin, etc.), are included in every experiment.
(§8) Background optical density measurements (complete media--cells, and complete media+drug-cells) are automatically subtracted from the appropriate control and test wells. Mean values and standard errors are determined from duplicate wells. A measure is also made of the optical density at time when the drugs are added. The number of cells after treatment (P), as % of control, is calculated for every concentration of drug, as follows: [formula] wherein: T is optical density measurement for treated cells after 48 hours;
(§9) C is optical density measurement for untreated cells after 48 hours;
(§10) Co is optical density measurement for cells at the time of drug addition.
(§11) IC50 of Growth inhibition is calculated from the sets of P values using the RS-1 data package (BBN Software).
(§12) Antiproliferative Activity in Human Tumor and Adult Bovine Aortic Endothelial Cell Lines (ABAE)
(§13) The antiproliferative activity of the compounds of Formula I is evaluated in a panel comprised of human tumor cell lines as listed in Protocol 1 as well as an adult bovine aortic endothelial cell line (ABAE). This assay is a modification of PROTOCOL 1. The modifications include:
(§14) 1) each concentration for each compound is tested in a single well;
(§15) 2) compounds are tested at 20, 4, 0.8, 0.16 microgram/ml and additionally in some experiments at 100 and 0.32 microgram/ml;
(§16) 3) samples are pipetted into a 96-well plate for each of the cell lines by a Beckman Biomek 1000 SL robot; […]

The subject of the next assay is MIP. The description is as above. As to conditions: colon tumor cell line MIP, 48 hours. The method, then:
as §1, §2, §3, §4, §5, §6, §7, §8, §9, §10, §11, §12, §13, §14, §15, §16

The mark [2] stands for this setting: Caco-2, colon tumor cell line CACO2, 48 hours, read-out: IC50.

As to `CN(C)[C@@H]1C(O)=C(C(N)=O)C(=O)[C@@]2(O)C(O)=C3C(=O)c4c(O)ccc(Br)c4CC3CC12` (stereo partly drawn) [Example 8, [4S-(4α,12aα)]-7-Bromo-4-(dimethylamino)-1,4,4a,5,5a,-6,11,12a-octahydro-3,10,12,12a-tetrahydroxy-1,11-dioxo-2-naphthacenecarboxamide sulfate], the results for the IC50 (in assay [1]; in the assay on CACO2 (setting [2]); in the assay with MIP) were 2.4 µg/mL, 2.4 µg/mL and 2 µg/mL, respectively.

Turning to `CN(C)[C@@H]1C(O)=C(C(N)=O)C(=O)[C@@]2(O)C(O)=C3C(=O)c4c(O)ccc(I)c4CC3CC12` (stereo partly drawn) [Example 10, [4S-(4α,12aα)]-4-(Dimethylamino)-4,4,4a,5,5a,6,11,12a-octahydro-3,10,12,12a-tetrahydroxy-7-iodo-1,11-dioxo-2-naphthacenecarboxamide], the IC50 turned out to be 5 µg/mL (≈ 9.25 µM) in assay [1]; 2.8 µg/mL (≈ 5.18 µM) in the assay on CACO2 (Caco-2, 48 h); 0.8 µg/mL (≈ 1.48 µM) in the assay on MIP.

Regarding `CN(C)c1ccc(O)c2c1C[C@H]1C[C@H]3[C@H](N(C)C)C(O)=C(C(N)=O)C(=O)[C@@]3(O)C(O)=C1C2=O` [Minocycline, reference compound], the IC50 in assay [1] was above 20 µg/mL; in the assay on CACO2 (setting [2]), 9 µg/mL (≈ 19.7 µM); in the assay with MIP, 6.1 µg/mL (≈ 13.3 µM).
